A value given as a limit tells only on which side of the number the result lay.

Consider 16 molecules from ChEMBL document CHEMBL1153142, “Scaffold hopping from pyridones to imidazo[1,2-a]pyridines. New positive allosteric modulators of metabotropic glutamate 2 receptor” (Bioorg Med Chem Lett, 2010).

One assay has as its target T1, Metabotropic glutamate receptor 2 (Homo sapiens, UniProt Q14416). In words: Allosteric modulation of human mGluR2 expressed in CHO cells by [35S]GTPgammaS binding assay relative to glutamate. The assay is classed as functional, cell-based. For orientation: Binding of GTPγS marks nucleotide exchange on a G protein.
Target sequence in this assay (Q14416 19-872 limits assumed): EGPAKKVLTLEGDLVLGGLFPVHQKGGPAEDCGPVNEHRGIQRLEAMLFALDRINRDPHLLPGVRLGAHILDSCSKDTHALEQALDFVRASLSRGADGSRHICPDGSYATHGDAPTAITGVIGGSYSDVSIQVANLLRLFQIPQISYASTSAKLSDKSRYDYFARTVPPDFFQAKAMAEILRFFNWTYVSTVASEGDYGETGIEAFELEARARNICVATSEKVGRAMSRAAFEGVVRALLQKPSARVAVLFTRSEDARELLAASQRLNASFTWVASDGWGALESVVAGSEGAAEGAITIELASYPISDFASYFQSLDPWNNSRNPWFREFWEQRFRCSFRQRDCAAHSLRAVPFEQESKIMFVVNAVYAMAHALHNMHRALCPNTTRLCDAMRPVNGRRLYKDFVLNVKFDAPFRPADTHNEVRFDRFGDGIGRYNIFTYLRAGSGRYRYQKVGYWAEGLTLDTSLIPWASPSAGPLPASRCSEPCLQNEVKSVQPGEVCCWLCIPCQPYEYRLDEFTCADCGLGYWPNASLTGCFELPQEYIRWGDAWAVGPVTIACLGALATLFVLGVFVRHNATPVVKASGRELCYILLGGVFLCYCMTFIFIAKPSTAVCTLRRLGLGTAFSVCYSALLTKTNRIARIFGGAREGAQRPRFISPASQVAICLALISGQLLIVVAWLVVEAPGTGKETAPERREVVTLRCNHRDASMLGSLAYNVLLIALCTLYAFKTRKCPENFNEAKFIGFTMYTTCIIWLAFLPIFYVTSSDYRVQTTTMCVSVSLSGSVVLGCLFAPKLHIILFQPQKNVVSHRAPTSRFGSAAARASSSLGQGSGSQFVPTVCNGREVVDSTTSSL
As for `CCc1cnc2c(C#N)c(N3CCN(c4ncccn4)CC3)ccn12`, the Emax amounted to 214%.

Take `N#Cc1c(N2CCN(c3ccccc3)CC2)ccn2c(-c3ccccc3)cnc12`: the Emax came out at 73%.

In turn, `N#Cc1c(-c2ccc(Oc3ccccc3)cc2)ccn2c(CC(F)(F)F)cnc12` displayed a maximum response (Emax) of 200%.

Turning to `N#Cc1c(-c2ccc(NC3CC3)c(Cl)c2)ccn2c(CC(F)(F)F)cnc12`, the maximum response (Emax) came to 187%.

The molecule `N#Cc1c(N2CCN(c3ncccn3)CC2)ccn2c(CCC3CC3)cnc12` yielded a maximal response (Emax) of 229%.

In turn, `CCCc1cnc2c(C#N)c(N3CCN(c4ccccc4)CC3)ccn12` gave an Emax of 241%.

The molecule `CCCc1cnc2c(C#N)c(N3CCN(c4ncccn4)CC3)ccn12` showed an Emax of 248%.

On to `Cc1c(OCc2cccc(-c3ccc(C(=O)O)cc3)c2)cc2c(c1C)C(=O)C(C1CCCC1)C2` (centres undefined), for which the maximum response (Emax) was 213%.

In turn, `CC(C)(C)c1ccc(-c2ccn3c(CC(F)(F)F)cnc3c2C#N)cc1` returned a maximal response (Emax) of 272%.

`CCc1cnc2c(C#N)c(N3CCN(c4nc(C)cc(C)n4)CC3)ccn12` had an Emax of 142%.

As to `N#Cc1c(-c2ccc(OCc3ccccc3)cc2)ccn2c(CC(F)(F)F)cnc12`, the Emax was 222%.

With `N#Cc1c(-c2ccc(N3CCCCC3)cc2)ccn2c(CC(F)(F)F)cnc12`, the maximal effect (Emax) came out at 123%.

For `CCCc1cnc2c(C#N)c(N3CCN(c4nc(C)cc(C)n4)CC3)ccn12`, the Emax was 179%.

With `Cc1cc(C)nc(N2CCN(c3ccn4c(CC(F)(F)F)cnc4c3C#N)CC2)n1`, the Emax came out at 128%.

For the molecule `CCCCn1ccc(N2CCN(c3nc(C)cc(C)n3)CC2)c(C#N)c1=O`, the Emax came out at 235%.

On to `N#Cc1c(N2CCN(c3ncccn3)CC2)ccn2c(CC(F)(F)F)cnc12`, for which the maximal effect (Emax) came out at 231%.

The target in the next assay is T1, Metabotropic glutamate receptor 2. In words: Allosteric modulation of human mGluR2 expressed in CHO cells by [35S]GTPgammaS binding assay. The assay is classed as functional, cell-based.
Target sequence in this assay (Q14416 whole entry): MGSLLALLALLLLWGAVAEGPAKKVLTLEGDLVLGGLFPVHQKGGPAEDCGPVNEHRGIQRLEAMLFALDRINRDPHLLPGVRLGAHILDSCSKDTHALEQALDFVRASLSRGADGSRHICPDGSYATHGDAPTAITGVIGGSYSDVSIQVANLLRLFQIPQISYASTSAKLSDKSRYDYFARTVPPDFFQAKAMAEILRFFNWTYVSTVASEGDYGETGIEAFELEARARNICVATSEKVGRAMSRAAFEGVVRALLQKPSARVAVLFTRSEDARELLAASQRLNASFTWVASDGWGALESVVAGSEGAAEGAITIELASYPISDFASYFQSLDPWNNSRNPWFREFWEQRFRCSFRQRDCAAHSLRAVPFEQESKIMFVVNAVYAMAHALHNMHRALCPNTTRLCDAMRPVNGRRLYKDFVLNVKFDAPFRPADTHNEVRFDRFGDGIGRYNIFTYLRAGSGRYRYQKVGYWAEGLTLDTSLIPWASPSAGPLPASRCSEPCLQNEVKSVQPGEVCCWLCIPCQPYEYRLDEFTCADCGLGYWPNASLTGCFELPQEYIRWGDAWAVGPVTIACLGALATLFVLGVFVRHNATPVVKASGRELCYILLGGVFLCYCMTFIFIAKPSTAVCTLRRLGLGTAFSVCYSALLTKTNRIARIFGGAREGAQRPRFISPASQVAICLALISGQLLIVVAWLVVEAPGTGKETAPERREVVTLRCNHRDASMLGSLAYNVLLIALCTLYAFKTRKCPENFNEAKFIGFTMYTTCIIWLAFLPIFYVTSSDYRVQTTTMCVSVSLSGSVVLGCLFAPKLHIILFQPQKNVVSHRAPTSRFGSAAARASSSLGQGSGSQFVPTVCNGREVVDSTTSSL
`CCc1cnc2c(C#N)c(N3CCN(c4ncccn4)CC3)ccn12` showed an EC50 of over 3.16 µM.

For the molecule `N#Cc1c(N2CCN(c3ccccc3)CC2)ccn2c(-c3ccccc3)cnc12`, the EC50 was over 3.16 µM.

Consider `CCCc1cnc2c(C#N)c(N3CCN(c4ncccn4)CC3)ccn12`, for which the concentration for a half-maximal effect (EC50) is over 3.16 µM.

What is called Emax is the greatest response seen or fitted, relative to the assay's reference. As usually defined, the EC50 is the concentration giving half of the maximal effect.
